For the experiment, the system named is mature C. albicans biofilms. Briefly: Eradication of mature biofilm (MTT). Format: cell-based, Candida albicans. The following applies: 48 h biofilm, then 48 h treatment at 37 °C.

One substance from paper PMC9108603, “Microbial Metabolite Inspired β‐Peptide Polymers Displaying Potent and Selective Antifungal Activity” (Advanced Science, 2022) can be followed below.

As to poly(DL‐diaminopropionic acid) [PDAP20], the “Concentration that eradicates mature biofilms (SMIC80)” value came out at 50 µg/mL.
